Results on four molecules are retold here after ChEMBL document CHEMBL1201862, “PubChem BioAssay data set” (2004).

The term IC50 denotes the concentration that gives 50% inhibition. By Ki is commonly meant the equilibrium dissociation constant of an inhibitor or competing ligand from its target. What is called EC50 is the concentration that produces a half-maximal response.

Calls of active or inactive are those of the source. A value given as a limit tells only on which side of the number the result lay.

The target of one experiment is T1, Hexokinase HKDC1 (Homo sapiens, UniProt Q2TB90).
T1 sequence (Q2TB90 whole entry): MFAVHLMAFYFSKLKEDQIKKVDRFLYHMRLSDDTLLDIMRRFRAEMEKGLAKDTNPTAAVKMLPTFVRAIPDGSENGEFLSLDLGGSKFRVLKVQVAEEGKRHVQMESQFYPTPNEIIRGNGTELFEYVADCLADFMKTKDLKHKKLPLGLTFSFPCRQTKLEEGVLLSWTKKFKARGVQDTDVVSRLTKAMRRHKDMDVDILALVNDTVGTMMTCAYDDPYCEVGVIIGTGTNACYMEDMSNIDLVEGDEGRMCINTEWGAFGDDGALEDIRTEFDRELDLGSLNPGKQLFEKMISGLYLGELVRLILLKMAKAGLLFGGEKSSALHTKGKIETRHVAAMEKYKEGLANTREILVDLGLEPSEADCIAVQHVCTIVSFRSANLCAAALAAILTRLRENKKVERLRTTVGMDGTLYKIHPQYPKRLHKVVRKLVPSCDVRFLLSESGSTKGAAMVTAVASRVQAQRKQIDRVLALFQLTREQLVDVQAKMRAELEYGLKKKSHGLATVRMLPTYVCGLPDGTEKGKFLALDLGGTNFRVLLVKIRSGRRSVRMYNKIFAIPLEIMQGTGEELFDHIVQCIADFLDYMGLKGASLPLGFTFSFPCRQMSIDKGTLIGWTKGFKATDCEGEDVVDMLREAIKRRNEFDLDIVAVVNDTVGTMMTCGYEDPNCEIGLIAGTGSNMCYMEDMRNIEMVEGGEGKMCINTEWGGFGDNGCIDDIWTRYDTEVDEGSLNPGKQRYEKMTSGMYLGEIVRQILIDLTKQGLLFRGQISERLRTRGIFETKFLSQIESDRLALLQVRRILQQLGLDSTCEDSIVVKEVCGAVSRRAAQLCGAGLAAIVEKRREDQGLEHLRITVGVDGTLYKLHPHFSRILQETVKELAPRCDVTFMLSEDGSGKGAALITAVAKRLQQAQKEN
Description: HKDC1 hexokinase inhibitors, dose response, biochemical, W721R variant (AID 504729). It counts as functional.

In experiment [1] the target is DNA dC->dU-editing enzyme APOBEC-3A (Homo sapiens, UniProt P31941). Description: APOBEC3A DNA deaminase inhibitors, dose response, biochemical (AID 504722). It counts as functional.
Experiment [2] deals with T2, Serine/threonine-protein phosphatase (Homo sapiens, UniProt Q9BPW0).
T2 sequence (Q9BPW0 whole entry): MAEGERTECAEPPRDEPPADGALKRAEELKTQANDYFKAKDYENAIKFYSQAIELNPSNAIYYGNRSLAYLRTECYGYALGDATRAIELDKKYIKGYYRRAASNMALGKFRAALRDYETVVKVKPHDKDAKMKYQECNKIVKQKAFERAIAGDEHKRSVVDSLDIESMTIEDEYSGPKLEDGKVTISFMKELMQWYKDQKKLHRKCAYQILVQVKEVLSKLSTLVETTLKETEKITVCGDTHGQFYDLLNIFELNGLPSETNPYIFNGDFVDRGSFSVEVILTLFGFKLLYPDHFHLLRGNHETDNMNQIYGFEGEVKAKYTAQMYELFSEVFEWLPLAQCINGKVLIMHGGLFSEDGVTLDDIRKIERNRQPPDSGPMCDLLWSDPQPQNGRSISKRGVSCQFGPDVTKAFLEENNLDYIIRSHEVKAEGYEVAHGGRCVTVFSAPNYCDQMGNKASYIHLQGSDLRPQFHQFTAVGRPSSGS
Description: Counterscreen for inhibitors of PP1: fluorescence-based biochemical high throughput dose response assay to identify inhibitors of Protein Phosphatase 5 (PP5). [Related pubchem assays: 2034 (Summary (PP5 inhibitors)), 1987 (PP5 inhibitors in singlate), 2235 (PP1 inhibitors in singlate)]. (In general: A counterscreen serves to expose hits that act by an unwanted route or on another target.)

Experiment [3] deals with Dual specificity tyrosine-phosphorylation-regulated kinase 1B (Homo sapiens, UniProt Q9Y463). Description: Navigating the Kinome. Panel member name: DYRK1B. It is filed as functional.
Experiment [4] deals with ALK tyrosine kinase receptor (Homo sapiens, UniProt Q9UM73). It counts as functional.
In experiment [5] the target is Mitogen-activated protein kinase 9 (Homo sapiens, UniProt P45984). It is filed as functional.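 Also: value from a kinome panel profiling assay, MAPK9 panel entry.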
The target in experiment [6] is Vascular endothelial growth factor receptor 1 (Homo sapiens, UniProt P17948). It is filed as functional.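 Also: measured within a kinome-wide profiling panel, FLT1 as the panel member.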
The target of experiment [7] is Vascular endothelial growth factor receptor 2 (Homo sapiens, UniProt P35968). It is filed as functional.
A further experiment addresses Aurora kinase A (Homo sapiens, UniProt O14965). It is filed as functional.
In experiment [8] the target is Platelet-derived growth factor receptor alpha (Homo sapiens, UniProt P16234). Description: Navigating the Kinome. Panel member name: PDGFRA. It counts as functional.
The next experiment concerns the target Activated CDC42 kinase 1 (Homo sapiens, UniProt Q07912). Description: Navigating the Kinome. Panel member name: ACK1. It counts as functional.
Experiment [9] concerns the target Glycogen synthase kinase-3 alpha (Homo sapiens, UniProt P49840). It counts as functional.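 Also: GSK3A result taken from a broad kinome-wide kinase panel.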
Experiment [10] has as its target Mitogen-activated protein kinase 8 (Homo sapiens, UniProt P45983). It counts as functional.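 Also: value comes from one member of a kinome-wide kinase profiling panel.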
Experiment [11] deals with Insulin-like growth factor 1 receptor (Homo sapiens, UniProt P08069). In words: Navigating the Kinome. Panel member name: IGF1R. It is filed as functional.
The target of experiment [12] is Proto-oncogene tyrosine-protein kinase receptor Ret (Homo sapiens, UniProt P07949). It counts as functional.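 Also: measured within a kinome-wide profiling panel, RET as the panel member.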
The target in experiment [13] is G protein-coupled receptor kinase 5 (Homo sapiens, UniProt P34947). In words: Navigating the Kinome. Panel member name: GPRK5. It is filed as functional.
For experiment [14], the target named is Cyclin-dependent kinase 8 (Homo sapiens, UniProt P49336). Description: Navigating the Kinome. Panel member name: CDK8. It is filed as functional.
For experiment [15], the target named is Mitogen-activated protein kinase 14 (Homo sapiens, UniProt Q16539). It is filed as functional.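 Also: part of a kinome-wide panel, MAPK14 entry.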
Experiment [16] deals with Serine/threonine-protein kinase Chk1 (Homo sapiens, UniProt O14757). It counts as functional.
For experiment [17], the target named is Intestinal-type alkaline phosphatase (Mus musculus, UniProt P24822). In words: mouse intestinal alkaline phosphatase activators, dose response, biochemical, luminescence, uHTS hits (AID 488783). It counts as functional.

Sequence of ALK tyrosine kinase receptor (Q9UM73 whole entry): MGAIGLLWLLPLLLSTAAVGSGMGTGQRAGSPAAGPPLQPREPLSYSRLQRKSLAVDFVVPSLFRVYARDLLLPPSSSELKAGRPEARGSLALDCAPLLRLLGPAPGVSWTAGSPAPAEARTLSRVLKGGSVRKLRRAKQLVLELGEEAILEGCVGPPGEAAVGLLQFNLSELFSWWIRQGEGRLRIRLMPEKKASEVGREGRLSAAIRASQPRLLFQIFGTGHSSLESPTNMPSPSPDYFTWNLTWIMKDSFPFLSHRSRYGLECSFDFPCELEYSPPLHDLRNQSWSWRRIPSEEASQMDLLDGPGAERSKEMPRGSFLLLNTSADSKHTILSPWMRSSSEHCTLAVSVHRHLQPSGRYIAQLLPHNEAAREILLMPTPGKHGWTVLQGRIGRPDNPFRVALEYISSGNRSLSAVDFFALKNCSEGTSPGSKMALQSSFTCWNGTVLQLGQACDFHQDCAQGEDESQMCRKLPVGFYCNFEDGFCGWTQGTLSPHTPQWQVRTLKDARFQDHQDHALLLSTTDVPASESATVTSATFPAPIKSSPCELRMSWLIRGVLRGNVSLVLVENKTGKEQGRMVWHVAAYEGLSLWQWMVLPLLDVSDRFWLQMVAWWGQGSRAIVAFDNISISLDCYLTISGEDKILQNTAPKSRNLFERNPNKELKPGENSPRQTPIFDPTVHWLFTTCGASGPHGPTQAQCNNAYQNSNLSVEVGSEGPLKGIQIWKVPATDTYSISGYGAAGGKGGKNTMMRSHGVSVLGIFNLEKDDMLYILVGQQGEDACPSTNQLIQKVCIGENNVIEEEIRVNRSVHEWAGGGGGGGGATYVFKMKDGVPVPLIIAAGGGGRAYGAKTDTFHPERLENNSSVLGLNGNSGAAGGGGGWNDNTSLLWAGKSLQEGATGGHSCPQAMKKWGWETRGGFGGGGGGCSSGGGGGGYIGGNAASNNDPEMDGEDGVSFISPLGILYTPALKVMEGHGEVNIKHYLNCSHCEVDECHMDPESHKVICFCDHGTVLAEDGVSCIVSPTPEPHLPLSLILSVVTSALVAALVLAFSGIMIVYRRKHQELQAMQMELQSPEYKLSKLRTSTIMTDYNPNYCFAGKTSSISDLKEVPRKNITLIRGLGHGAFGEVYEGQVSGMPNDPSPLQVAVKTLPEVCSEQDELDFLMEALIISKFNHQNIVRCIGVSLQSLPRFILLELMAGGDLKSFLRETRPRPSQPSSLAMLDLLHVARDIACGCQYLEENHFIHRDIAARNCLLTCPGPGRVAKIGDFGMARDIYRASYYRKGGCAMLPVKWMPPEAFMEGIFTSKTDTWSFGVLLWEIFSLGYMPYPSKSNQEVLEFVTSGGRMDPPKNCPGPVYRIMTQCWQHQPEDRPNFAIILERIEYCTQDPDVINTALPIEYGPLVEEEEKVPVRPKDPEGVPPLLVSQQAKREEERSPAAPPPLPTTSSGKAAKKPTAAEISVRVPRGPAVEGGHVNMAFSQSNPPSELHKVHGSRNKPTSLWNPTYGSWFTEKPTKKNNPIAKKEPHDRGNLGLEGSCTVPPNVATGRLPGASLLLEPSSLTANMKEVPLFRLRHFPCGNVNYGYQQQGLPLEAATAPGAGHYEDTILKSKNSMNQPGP
Sequence of Vascular endothelial growth factor receptor 1 (P17948 whole entry): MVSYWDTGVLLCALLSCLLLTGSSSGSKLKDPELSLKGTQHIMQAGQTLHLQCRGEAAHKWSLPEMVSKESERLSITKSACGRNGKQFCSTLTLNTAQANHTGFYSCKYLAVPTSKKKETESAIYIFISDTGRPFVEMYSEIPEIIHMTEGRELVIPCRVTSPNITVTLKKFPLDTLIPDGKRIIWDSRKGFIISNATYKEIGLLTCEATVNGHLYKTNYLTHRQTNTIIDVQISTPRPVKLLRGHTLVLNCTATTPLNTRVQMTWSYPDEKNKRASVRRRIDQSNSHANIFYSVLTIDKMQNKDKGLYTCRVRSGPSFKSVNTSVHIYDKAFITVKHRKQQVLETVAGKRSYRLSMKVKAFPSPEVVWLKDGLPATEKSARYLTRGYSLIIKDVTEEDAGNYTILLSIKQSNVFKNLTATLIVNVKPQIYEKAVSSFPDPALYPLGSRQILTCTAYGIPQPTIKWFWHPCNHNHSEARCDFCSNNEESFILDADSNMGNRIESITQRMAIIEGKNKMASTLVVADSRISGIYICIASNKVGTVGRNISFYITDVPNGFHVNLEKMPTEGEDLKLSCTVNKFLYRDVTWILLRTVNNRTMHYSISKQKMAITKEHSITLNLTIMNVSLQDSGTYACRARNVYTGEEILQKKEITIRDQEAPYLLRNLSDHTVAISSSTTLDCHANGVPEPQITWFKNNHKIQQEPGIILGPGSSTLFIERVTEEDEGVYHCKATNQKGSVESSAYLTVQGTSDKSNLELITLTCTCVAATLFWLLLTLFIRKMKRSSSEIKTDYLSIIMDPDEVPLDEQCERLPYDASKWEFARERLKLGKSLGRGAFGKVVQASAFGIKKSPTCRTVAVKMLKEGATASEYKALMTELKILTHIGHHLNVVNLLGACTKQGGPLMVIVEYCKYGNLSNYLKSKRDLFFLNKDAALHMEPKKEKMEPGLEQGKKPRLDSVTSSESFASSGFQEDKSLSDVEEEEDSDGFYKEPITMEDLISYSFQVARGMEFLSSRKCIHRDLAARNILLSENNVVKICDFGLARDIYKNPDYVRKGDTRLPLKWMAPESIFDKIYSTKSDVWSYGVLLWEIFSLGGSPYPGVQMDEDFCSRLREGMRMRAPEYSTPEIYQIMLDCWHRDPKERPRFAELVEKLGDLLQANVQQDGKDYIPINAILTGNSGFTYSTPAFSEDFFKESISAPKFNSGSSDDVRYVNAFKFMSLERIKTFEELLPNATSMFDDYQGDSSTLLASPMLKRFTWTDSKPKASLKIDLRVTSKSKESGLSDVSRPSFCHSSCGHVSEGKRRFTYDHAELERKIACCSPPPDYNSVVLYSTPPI
Sequence of Platelet-derived growth factor receptor alpha (P16234 whole entry): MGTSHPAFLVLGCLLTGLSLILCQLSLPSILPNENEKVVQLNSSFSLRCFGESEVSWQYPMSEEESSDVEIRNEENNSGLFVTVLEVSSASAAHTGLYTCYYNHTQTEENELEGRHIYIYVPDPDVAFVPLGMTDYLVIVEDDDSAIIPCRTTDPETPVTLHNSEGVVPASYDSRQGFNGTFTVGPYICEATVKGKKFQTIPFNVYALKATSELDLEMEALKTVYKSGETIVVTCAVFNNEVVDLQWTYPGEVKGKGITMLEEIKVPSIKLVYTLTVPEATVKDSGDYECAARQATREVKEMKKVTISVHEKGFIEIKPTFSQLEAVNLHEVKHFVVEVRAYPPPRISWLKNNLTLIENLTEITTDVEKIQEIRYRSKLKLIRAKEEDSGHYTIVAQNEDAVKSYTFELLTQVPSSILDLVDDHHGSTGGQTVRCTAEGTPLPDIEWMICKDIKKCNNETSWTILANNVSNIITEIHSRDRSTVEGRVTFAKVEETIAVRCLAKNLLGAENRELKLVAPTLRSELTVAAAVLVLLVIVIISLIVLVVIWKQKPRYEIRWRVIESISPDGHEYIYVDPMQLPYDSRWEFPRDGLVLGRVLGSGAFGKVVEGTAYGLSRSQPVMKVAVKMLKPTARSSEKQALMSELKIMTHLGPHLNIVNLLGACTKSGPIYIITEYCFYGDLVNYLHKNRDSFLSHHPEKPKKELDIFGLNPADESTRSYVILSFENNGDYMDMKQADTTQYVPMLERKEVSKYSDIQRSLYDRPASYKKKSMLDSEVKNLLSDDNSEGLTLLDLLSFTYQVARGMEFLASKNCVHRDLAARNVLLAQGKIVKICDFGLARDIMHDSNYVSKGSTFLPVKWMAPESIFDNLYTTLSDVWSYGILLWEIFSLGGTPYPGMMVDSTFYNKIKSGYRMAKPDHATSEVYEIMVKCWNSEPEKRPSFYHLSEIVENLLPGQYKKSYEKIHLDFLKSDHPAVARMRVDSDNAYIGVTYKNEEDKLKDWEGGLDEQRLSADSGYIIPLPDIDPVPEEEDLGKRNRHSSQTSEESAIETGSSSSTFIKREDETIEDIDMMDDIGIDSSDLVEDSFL
Sequence of Cyclin-dependent kinase 8 (P49336 whole entry): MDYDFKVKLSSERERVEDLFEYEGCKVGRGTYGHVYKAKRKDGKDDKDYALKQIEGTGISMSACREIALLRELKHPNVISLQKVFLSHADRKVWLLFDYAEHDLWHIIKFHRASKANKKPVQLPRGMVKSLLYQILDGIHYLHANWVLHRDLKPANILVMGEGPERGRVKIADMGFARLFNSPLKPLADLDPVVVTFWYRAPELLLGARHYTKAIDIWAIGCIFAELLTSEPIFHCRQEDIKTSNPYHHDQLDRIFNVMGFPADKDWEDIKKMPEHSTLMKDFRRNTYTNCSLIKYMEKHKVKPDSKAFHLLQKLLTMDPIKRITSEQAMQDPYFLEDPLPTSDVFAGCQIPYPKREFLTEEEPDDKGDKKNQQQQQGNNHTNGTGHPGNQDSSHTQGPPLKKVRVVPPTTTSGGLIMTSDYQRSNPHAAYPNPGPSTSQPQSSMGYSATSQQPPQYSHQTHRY
Sequence of Mitogen-activated protein kinase 9 (P45984 whole entry): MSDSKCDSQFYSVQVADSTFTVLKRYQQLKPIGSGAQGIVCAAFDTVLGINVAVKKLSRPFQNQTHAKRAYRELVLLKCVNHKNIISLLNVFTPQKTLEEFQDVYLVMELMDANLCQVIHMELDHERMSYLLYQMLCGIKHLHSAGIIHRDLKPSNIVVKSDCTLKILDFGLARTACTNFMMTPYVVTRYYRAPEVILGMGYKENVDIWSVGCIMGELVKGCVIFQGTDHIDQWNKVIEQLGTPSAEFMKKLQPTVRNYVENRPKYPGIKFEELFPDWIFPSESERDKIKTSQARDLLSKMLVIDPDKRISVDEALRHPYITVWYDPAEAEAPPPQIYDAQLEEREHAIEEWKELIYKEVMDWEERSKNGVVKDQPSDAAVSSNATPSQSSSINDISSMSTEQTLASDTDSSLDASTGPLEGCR

Take `CC(=O)N(C1=C(Cl)C(=O)c2ccccc2C1=O)c1ccc(C(=O)O)cc1`: the IC50 is 6.23 µM (active) at Hexokinase HKDC1 and > 100 µM (inactive) in experiment [1].
For the molecule `CC1(C)C=C2C(=NN(c3ccccc3)C(N)=C2C#N)CO1`, the IC50 in experiment [2] is > 0.828 µM (active).
In the case of `Cc1ccc(-c2cc3nc(Br)cnc3[nH]2)cc1`, the Ki was > 2.51 µM (inactive) in experiment [3]; > 6.31 µM (inactive) in experiment [4]; > 3.98 µM (inactive) in [5]; > 3.98 µM (inactive) in experiment [6]; 1.26 µM (active) in experiment [7]; > 1.58 µM (inactive) at Aurora kinase A. In addition, the Ki in [8] was > 2.51 µM (inactive); at Activated CDC42 kinase 1, > 3.98 µM (inactive); in [9], > 3.98 µM (inactive); in [10] it was > 5.01 µM (inactive); in [11], > 2.51 µM (inactive); in [12], 2.51 µM (active). Also, the Ki in experiment [13] was > 3.98 µM (inactive); in experiment [14], > 3.98 µM (inactive); in [15], > 3.98 µM (inactive); in experiment [16], > 3.16 µM (inactive).
Regarding `O=C1C=C(O)c2c(O)cc(O)c(O)c2C1=O`, in experiment [17], the EC50 was 9.93 µM (active).
